The values that follow come from US12338283B2, “Methods for targeting the immune checkpoint PD1 pathway for treating pulmonary fibrosis” (CEDARS-SINAI MEDICAL CENTER, priority 2017, dated 2025).

One experiment deals with patients with IPF. The settings on record: cited from earlier work.
Experiment [1] relates to NSG mice injected with CD274^high IPF fibroblasts. Description: Humanized SCID IPF model: lung fibrosis (hydroxyproline, Masson trichrome) in NSG mice injected with IPF fibroblasts. Type of experiment: in vivo, mouse. The settings on record: mice receiving CD274^high lung fibroblasts, compared with vehicle (CMC-Na) treated mice (FIG. 19E, 19F). As to the method: FIG. 19A-J show CD274 and FAK signaling are required for lung fibroblast invasion. In the experimental results shown in FIG. 19A-FIG. 19C, equal number of cells were seeded in the upper part of transwells and cell migration and invasion assays were performed (n=3 per group). […] Scale bar: 1 mm. FIG. 19B and FIG. 19C are graphs that show cell migration index or invasion index, which was calculated as the number of cells attached to the bottom of control or Matrigel-coated membrane after 24 h, normalized to respective CD274^low lung fibroblasts. […] GAPDH served as equal loading control. FIG. 19E, FIG. 19G, and FIG. 19I show hydroxyproline contents in lung tissues. FIG. 19F, FIG. 19H and FIG. 19J show Masson trichrome staining of collagen on lung sections from NSG mice injected with CD274^low and CD274^high IPF fibroblasts treated with VS4718, vehicle control CMC-Na, or from NSG mice receiving gRNA-CTL or CD274 KO lung fibroblasts (n=6 per group), or from NSG mice injected with CD274^high IPF fibroblasts treated with Q-CD274 (n=12 per group) or isotype control IgG (n=12 for D0-35 IgG, n=11 for D35-63 IgG). Scale bars (FIG. 19F, FIG. 19H): 1 mm (top panel), 100 μm (middle and lower panels). Throughout, data are mean±sem. *P<0.05; **P<0.01 by student's t test (FIG. 19B, FIG. 19C, FIG. 19E, FIG. 19G).
The effect of the inhibition is assessed with hyroxyproline assay. […]

The subject of another experiment is CD274+ IPF fibroblasts. Description: Matrigel invasion assay of flow-sorted IPF lung fibroblasts. Type of experiment: cell-based, human. As to the method: (§1) CD274+ and CD274-fibroblast were flow sorted from fibroblasts of healthy and IPF lungs. The cells were plated onto transwells for migration assay, with and without anti-CD274 antibody (α-CD274) and control IgG. Migratory fibroblasts were fixed, stained, and photographed. […] CD274+ and CD274− fibroblast were flow sorted from fibroblasts of healthy and IPF lungs. The cells were plated onto matrigel chamber for invasion assay, with and without anti-CD274 antibody (α-CD274) and control IgG. Invasive fibroblasts were fixed, stained, and photographed.
FIG. 10A is a schematic representation of an in vitro invasion assay: Lung fibroblasts were seeded in the upper part of transwells. Cells attached to the bottom of Matrigel-coated membrane after 24 h were considered invasive fibroblasts. Cells that remained on top of Matrigel-coated membrane were considered non-invasive fibroblasts. […]
FIG. 19A-J show CD274 and FAK signaling are required for lung fibroblast invasion. […] FIG. 19B and FIG. 19C are graphs that show cell migration index or invasion index, which was calculated as the number of cells attached to the bottom of control or Matrigel-coated membrane after 24 h, normalized to respective CD274^low lung fibroblasts. […]
(§2) CD274+ and CD274− fibroblasts from IPF and healthy lungs were flow sorted and analyzed with an invasion assay.

The test system of a further experiment is CD274+ fibroblasts. Description: Transwell migration assay of flow-sorted IPF lung fibroblasts. It is filed as cell-based, human. The settings on record: CD274^low and CD274^high IPF fibroblasts, 24 h, vs vehicle DMSO (FIG. 19A-C). As to the method:
as §1
FIG. 19A-J show CD274 and FAK signaling are required for lung fibroblast invasion. In the experimental results shown in FIG. 19A-FIG. 19C, equal number of cells were seeded in the upper part of transwells and cell migration and invasion assays were performed (n=3 per group). […] Scale bar: 1 mm. FIG. 19B and FIG. 19C are graphs that show cell migration index or invasion index, which was calculated as the number of cells attached to the bottom of control or Matrigel-coated membrane after 24 h, normalized to respective CD274^low lung fibroblasts. […] GAPDH served as equal loading control. FIG. 19E, FIG. 19G, and FIG. 19I show hydroxyproline contents in lung tissues. […]
as §2

With `COc1ccccc1Oc1c(NS(=O)(=O)c2ccc(C(C)(C)C)cc2)nc(-c2ncccn2)nc1OCCO` [Bosentan], the “clinical benefit in patients with IPF” value in the experiment on patients with IPF is reported as “not better than placebo”.

With `CC(=O)N[C@@H](CS)C(=O)O` [acetylcysteine], the “clinical benefit in patients with IPF” value in the experiment on patients with IPF is “some benefits”.

Regarding `CNC(=O)c1ccccc1Nc1cc(Nc2ccc(N3CCOCC3)cc2OC)ncc1C(F)(F)F` [VS4718], the development of fibrosis result in experiment [1] is given as “prevented the development of fibrosis”. Also, the “cell invasion of lung fibroblasts” value with CD274+ IPF fibroblasts (CD274^low and CD274^high IPF fibroblasts, Matrigel-coated membrane, 24 h, vs vehicle DMSO (FIG. 19A-C)) is recorded as “significantly blocked”. For the same molecule, the “invasiveness / invasive phenotype of CD274+ fibroblasts” value in the experiment with CD274+ IPF fibroblasts (flow-sorted CD274+ IPF fibroblasts, matrigel chamber) is listed as “reduced invasiveness”. Moreover, the “cell migration of lung fibroblasts” value with CD274+ fibroblasts is on record as “significantly blocked”.

Regarding `Cc1ccc(=O)n(-c2ccccc2)c1` [Pirfenidone], in the experiment on patients with IPF, the disease progression entry was “reduces disease progression” and the “improve lung function or reduce fibrosis” value is reported as “neither”.

Regarding `COC(=O)c1ccc2c(c1)NC(=O)/C2=C(\Nc1ccc(N(C)C(=O)CN2CCN(C)CC2)cc1)c1ccccc1` [nintedanib], the “improve lung function or reduce fibrosis” value in the experiment on patients with IPF is “neither”.

B1: Interferon gamma-1b: interferon-gamma replenishment tested in IPF trials (protein, UniProt P01579 24-161, looked up)
Interferon gamma: QDPYVKEAENLKKYFNAGHSDVADNGTLFLGILKNWKEESDRKIMQSQIVSFYFKLFKNFKDDQSIQKSVETIKEDMNVKFFNSNKKKRDDFEKLTNYSVTDLNVQRKAIHELIQVMAELSPAAKTGKRKRSQMLFRG
B1: in the experiment on patients with IPF, the “survival for patients with IPF” value was “did not improve survival”.
